# Measurements reported in patent US12059478B2, “Gene therapy” (Ospedale San Raffaele S.r.l., priority 2016, dated 2024).
# B1: GSE56: dominant negative form of p53 (SEQ ID NO: 6), over-expressed from a LV (protein, listed as Homo sapiens)
# chain: CPGRDRRTEEENFRKKEEHCPELPPGSAKRALPTSTSSSPQQKKKPLDGEYFTLKIRGRERFEMFRELNEALELKDARAAEESGDSRAHSSYPK
# How the values were obtained:
# ATR [1] = target: T1, ATR (Mus musculus, UniProt Q9JKK8); details: 3T3TopBP1-ER cells; cited from earlier work
# T1 construct: endogenous in cells; host or cells: 3T3TopBP1-ER cells
# ATR [2] = target: ATR (Homo sapiens, UniProt Q13535, F134E); details: cited from earlier work
# ATR (Homo sapiens, UniProt Q13535, F134E), sequence (Q13535 whole entry F134E): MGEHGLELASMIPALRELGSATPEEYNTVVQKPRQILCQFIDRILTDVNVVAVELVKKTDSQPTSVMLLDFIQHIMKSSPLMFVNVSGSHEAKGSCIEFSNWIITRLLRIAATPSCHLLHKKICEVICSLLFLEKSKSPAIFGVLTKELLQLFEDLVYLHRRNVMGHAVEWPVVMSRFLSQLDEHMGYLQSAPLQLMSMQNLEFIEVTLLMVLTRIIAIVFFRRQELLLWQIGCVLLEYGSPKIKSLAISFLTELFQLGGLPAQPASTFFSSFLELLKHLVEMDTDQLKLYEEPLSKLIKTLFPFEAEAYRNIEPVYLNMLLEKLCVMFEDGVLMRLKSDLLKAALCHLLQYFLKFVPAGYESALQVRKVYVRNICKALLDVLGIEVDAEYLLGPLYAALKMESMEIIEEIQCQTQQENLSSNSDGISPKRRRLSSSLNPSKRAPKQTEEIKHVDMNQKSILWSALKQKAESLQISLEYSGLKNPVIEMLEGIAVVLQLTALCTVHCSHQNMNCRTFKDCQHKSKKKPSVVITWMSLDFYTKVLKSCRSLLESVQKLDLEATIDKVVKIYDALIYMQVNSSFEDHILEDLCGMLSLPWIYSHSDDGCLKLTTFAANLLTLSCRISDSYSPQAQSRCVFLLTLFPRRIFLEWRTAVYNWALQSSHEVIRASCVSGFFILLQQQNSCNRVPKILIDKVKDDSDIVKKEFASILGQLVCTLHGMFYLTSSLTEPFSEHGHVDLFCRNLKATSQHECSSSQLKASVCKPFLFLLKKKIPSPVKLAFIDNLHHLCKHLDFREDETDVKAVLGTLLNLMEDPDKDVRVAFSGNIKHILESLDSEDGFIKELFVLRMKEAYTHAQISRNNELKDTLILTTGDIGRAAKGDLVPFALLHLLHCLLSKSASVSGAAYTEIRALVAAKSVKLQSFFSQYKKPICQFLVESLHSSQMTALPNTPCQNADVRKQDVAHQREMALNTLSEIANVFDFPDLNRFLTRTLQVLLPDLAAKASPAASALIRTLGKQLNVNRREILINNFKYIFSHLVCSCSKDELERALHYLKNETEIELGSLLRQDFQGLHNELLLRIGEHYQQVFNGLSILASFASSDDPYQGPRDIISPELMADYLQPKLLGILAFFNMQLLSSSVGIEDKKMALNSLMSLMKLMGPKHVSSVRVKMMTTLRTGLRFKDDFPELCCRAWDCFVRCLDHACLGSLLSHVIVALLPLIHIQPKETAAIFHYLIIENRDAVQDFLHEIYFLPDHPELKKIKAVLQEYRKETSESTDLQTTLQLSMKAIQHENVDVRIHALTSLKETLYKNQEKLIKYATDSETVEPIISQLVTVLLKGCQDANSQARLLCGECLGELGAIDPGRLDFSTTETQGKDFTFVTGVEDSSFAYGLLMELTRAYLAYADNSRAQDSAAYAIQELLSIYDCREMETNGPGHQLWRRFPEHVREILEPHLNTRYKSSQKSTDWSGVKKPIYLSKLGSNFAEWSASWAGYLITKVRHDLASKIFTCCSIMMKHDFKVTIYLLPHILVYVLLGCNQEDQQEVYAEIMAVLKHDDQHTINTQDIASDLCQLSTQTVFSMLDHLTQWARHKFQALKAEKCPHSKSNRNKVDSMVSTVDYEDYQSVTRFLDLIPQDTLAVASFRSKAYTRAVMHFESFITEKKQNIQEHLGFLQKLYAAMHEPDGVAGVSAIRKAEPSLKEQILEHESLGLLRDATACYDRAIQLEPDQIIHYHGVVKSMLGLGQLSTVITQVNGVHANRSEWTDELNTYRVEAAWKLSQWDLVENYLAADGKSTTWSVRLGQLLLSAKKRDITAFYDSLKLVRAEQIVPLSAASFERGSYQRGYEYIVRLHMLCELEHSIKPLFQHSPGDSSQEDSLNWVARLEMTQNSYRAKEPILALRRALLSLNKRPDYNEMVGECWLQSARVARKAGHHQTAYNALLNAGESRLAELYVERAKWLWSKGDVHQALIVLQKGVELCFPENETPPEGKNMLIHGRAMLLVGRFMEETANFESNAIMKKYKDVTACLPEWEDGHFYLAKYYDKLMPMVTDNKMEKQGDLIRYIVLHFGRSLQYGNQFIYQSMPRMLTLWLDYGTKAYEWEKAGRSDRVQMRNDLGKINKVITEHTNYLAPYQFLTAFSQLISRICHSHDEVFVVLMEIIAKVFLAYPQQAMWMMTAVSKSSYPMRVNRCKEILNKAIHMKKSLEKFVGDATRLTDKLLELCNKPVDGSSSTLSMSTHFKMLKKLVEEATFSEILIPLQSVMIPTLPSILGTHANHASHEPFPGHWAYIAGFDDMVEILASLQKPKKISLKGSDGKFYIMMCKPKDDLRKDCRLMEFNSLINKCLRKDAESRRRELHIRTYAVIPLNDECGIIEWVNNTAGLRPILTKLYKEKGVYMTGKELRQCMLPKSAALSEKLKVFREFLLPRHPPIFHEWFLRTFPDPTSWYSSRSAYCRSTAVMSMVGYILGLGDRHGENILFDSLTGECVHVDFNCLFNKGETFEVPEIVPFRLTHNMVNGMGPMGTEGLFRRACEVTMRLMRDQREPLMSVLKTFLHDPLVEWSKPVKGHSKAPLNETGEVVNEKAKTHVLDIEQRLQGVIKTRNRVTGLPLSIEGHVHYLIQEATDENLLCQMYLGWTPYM
# ATR (Homo sapiens, UniProt Q13535, F134E), sequence (Q8WXE1 whole entry partner): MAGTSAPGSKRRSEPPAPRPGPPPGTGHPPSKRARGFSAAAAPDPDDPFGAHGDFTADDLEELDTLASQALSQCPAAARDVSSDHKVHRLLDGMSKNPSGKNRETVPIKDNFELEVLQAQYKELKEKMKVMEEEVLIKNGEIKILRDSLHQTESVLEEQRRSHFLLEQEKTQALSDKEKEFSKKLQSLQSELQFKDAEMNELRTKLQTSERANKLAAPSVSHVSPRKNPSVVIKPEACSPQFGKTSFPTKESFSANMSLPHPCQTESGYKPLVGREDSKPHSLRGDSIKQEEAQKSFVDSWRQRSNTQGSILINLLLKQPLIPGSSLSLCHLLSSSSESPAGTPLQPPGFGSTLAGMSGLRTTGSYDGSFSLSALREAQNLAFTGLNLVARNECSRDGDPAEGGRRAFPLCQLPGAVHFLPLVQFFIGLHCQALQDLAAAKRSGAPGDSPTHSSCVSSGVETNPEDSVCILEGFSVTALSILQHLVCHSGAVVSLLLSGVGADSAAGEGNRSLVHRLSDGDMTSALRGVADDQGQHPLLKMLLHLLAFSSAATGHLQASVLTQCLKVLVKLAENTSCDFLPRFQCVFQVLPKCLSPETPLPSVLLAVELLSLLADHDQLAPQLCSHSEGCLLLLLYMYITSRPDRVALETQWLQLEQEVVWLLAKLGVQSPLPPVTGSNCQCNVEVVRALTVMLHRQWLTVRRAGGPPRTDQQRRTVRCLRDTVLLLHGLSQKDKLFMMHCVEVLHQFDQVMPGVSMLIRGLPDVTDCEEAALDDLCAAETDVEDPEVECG
# ATM kinase = ATM kinase (Homo sapiens, UniProt Q13315); details: cited from earlier work
# [3] = DMSO, ethanol; cited from earlier work
# [4] = tested on: human CD45+ cells in the peripheral blood; assay: Transplantation of transduced human HSPC in NSG mice (engraftment); details: transient inhibition during ex vivo transduction
# [5] = tested on: Interferon stimulated genes (IRF7, OAS1, ISG15) in human CB-CD34+; assay: Interferon stimulated gene mRNA induction; assay type: cell-based; details: RV MOI 100, 48 h, Raltegravir and KU55933 10 μM, AZT 25 μM
# Excerpt: (§1) Human CD34+ hematopoietic stem and progenitor cells (HSPC) and CD4+ T cells were isolated through magnetic bead selection according to the manufacturer's instructions (Milteny) from umbilical cord blood (CB) collected upon informed consent from healthy volunteers according to the Institutional Ethical Committee approved protocol (TIGET01). Otherwise, CB and bone marrow (BM)-derived CD34+ were directly purchased from Lonza. Cells were purified and cultured as described in Petrillo et al. (Petrillo, C. et al. (2015) Molecular Therapy 23: 352-362). K562 and Hela cell lines were plated in complete Iscove's modified Dulbecco's medium (Euroclone). HL-60 cells were grown and transduced in complete RPMI. HCT-116 cells were grown and transduced in complete Dulbecco's Modified Eagle Medium (DMEM). Murine Lin− cells were isolated through magnetic bead selection according to the manufacturer's instructions (Miltenyi) from bone marrow of euthanised C57/BL6 mice. […] All cells were transduced at the indicated multiplicity of infection (MOI) as calculated by titration of vector stocks on 293T cells for Lentiviral and Retroviral vectors. Transductions with the AAV6 vectors were performed at an MOI of 10000 as calculated by titration of the vector preparation expressed in vector genome per mL (vg/mL). […]
# [6] = tested on: p53 signalling (p21 mRNA) in human CD34+ HSPC; assay: p21 mRNA induction (p53 signalling) after vector transduction, Taqman; assay type: cell-based; details: for LV-induced p21 mRNA in presence of the inhibitor: CB-CD34+, LV MOI 100, inhibitor 10 μM, 48 h
# Excerpt: Human CD34+ hematopoietic stem and progenitor cells (HSPC) and CD4+ T cells were isolated through magnetic bead selection according to the manufacturer's instructions (Milteny) from umbilical cord blood (CB) collected upon informed consent from healthy volunteers according to the Institutional Ethical Committee approved protocol (TIGET01). Otherwise, CB and bone marrow (BM)-derived CD34+ were directly purchased from Lonza. Cells were purified and cultured as described in Petrillo et al. (Petrillo, C. et al. (2015) Molecular Therapy 23: 352-362). K562 and Hela cell lines were plated in complete Iscove's modified Dulbecco's medium (Euroclone). HL-60 cells were grown and transduced in complete RPMI. HCT-116 cells were grown and transduced in complete Dulbecco's Modified Eagle Medium (DMEM). Murine Lin− cells were isolated through magnetic bead selection according to the manufacturer's instructions (Miltenyi) from bone marrow of euthanised C57/BL6 mice. For the clinical standard double-hit transduction protocol, cells were washed 16 h after the first vector exposure, left to recover in cytokine-supplemented medium for 10 h and re-exposed to the second hit of vector for another 16 h before transplantation. All animal procedures were performed according to protocols approved by the Animal Care and Use Committee of the Ospedale San Raffaele (IACUC 611) and according to Italian law. All cells were transduced at the indicated multiplicity of infection (MOI) as calculated by titration of vector stocks on 293T cells for Lentiviral and Retroviral vectors. Transductions with the AAV6 vectors were performed at an MOI of 10000 as calculated by titration of the vector preparation expressed in vector genome per mL (vg/mL). All the transductions were performed at 1×10^6 cells/mL concentration. In the experiment with anti-retroviral inhibitors, the drugs were added together with the vector. Raltegravir and 3TC were used at 10 μM, and AZT at 25 μM. In the ATM inhibition experiment, single hit of the ATM inhibitor KU55933 (Selleck Chemicals) was added to the cells 2 hours before the transduction at 10 μM concentration. All cells were maintained in a 5% CO2 humidified atmosphere at 37° C.
# Total RNA was extracted with the RNeasy Plus Micro kit or RNeasy Micro Kit (Qiagen) and Reverse transcription was performed using SuperScriptVILO cDNA Synthesis Kit (ThermoFisher Scientific) according to the manufacturers' instructions. Gene expression analysis was performed by Taqman probe (Thermo Fisher, Table 6) as described in Petrillo et al. (Petrillo, C. et al. (2015) Molecular Therapy 23: 352-362), human HPRT1 or murine Hprt were used to normalise the total quantity of human or mouse cDNA input respectively.
# human CB-CD34+ cells [7] = assay: Cell proliferation dye assay; assay type: cell-based; details: LV MOI 100, 2 days
# mPB CD34+ cells = assay: Two-hit transduction protocol in mPB CD34+ cells with clinical-grade LV (apoptosis, CFC, cell counts, p21); assay type: cell-based, human; details: two hits MOI 100 clinical-grade LV, 10 μM
# Excerpt: as §1, with “(Euroclone).” for “(Euroclone). HL-60 cells were grown and transduced in complete RPMI. HCT-116 cells were grown and transduced in complete Dulbecco's Modified Eagle Medium (DMEM). Murine Lin− cells were isolated through magnetic bead selection according to the manufacturer's instructions (Miltenyi) from bone marrow of euthanised C57/BL6 mice.”
# CFC assay cells were performed as described in Petrillo et al and Gentner et al. (Petrillo, C. et al. (2015) Molecular Therapy 23: 352-362; Gentner, B. et al. (2010) Science Translational Medicine 2: 58ra84). After ten days, colonies were identified as erythroid or myeloid by morphological criteria, counted, plucked and pooled into sets of three to obtain DNA for quantification of vector content. […]
# human CD34+ HSPC = assay: Annexin V apoptosis assay after transduction; assay type: cell-based
# Excerpt: as §1, with “mice. For the clinical standard double-hit transduction protocol, cells were washed 16 h after the first vector exposure, left to recover in cytokine-supplemented medium for 10 h and re-exposed to the second hit of vector for another 16 h before transplantation.” for “mice.”
# (§2) Human HSPC fluorescence associated cell sorting was performed as described in Petrillo et al. (Petrillo, C. et al. (2015) Molecular Therapy 23: 352-362). All cytometric analyses were performed using the FACS […] instrument and LSRFortessa instruments (BD Biosciences, San Jose, CA) and analysed with the FACS Express software (De Novo Software, Glendale, CA). GFP expression in transduced cells was measured 5-7 days post-transduction. […]
# human CB-CD34+ cells [8] = assay: Transduction efficiency (GFP expression, integrated vector copy number); assay type: cell-based; details: LV MOI 100, 10 μM, 14 days
# Excerpt: as §1, with “(Euroclone).” for “(Euroclone). HL-60 cells were grown and transduced in complete RPMI. HCT-116 cells were grown and transduced in complete Dulbecco's Modified Eagle Medium (DMEM). Murine Lin− cells were isolated through magnetic bead selection according to the manufacturer's instructions (Miltenyi) from bone marrow of euthanised C57/BL6 mice.”
# as §2, with “CA).” for “CA). GFP expression in transduced cells was measured 5-7 days post-transduction.”
# [9] = CB-CD34+ exposed to AAV-6 MOI 10000, 10 μM
molecule,measurement,setting,value
"Cn1c(=O)n(-c2ccc(C(C)(C)C#N)cc2)c2c3cc(-c4cnc5ccccc5c4)ccc3ncc21 [BEZ235, Dactolisib]",IC50,ATR [1],~21 nM
O=C(NC(NC(=S)Nc1ccc(F)c([N+](=O)[O-])c1)C(Cl)(Cl)Cl)C(c1ccccc1)c1ccccc1 (centres unmarked) [CGK 733],IC50,ATR [2],~200 nM
same,IC50,ATM kinase,~200 nM
COc1cc2ncnc(-n3nc(-c4ccccn4)nc3N)c2cc1OC [CP-466722],Effect on ATR,ATR [2],does not affect ATR
same,ATM kinase inhibition,ATM kinase,potent and reversible ATM kinase inhibitor
O=c1cc(-c2cccc3c2Sc2ccccc2S3)oc(N2CCOCC2)c1 [KU-55933],Solubility,[3],soluble in DMSO and ethanol
same,Improvement of LV-exposed HSPC engraftment,[4],around 25%
same,γRV-mediated ISG induction in presence of the inhibitor,[5],no impact
same,AAV-6-induced p21 mRNA under ATM inhibition,[6]; [9],rescued
same,LV-induced p21 mRNA in presence of the inhibitor,[6],significantly reduced
same,Proliferation delay of LV-transduced HSPC under ATM inhibition,human CB-CD34+ cells [7],did not affect
same,"Impact of ATM inhibition on apoptosis, colony output, cell counts in culture and p21 induction",mPB CD34+ cells,Positive impact
same,AAV-6-induced apoptosis under ATM inhibition,human CD34+ HSPC; [9],rescued
same,LV-induced apoptosis in presence of the inhibitor,"human CD34+ HSPC; CB-CD34+, LV MOI 100, inhibitor 10 μM, 48 h",partially abrogated
Cc1nnc(C(=O)NC(C)(C)c2nc(C(=O)NCc3ccc(F)cc3)c(O)c(=O)n2C)o1 [Raltegravir],LV integration (VCN) in presence of integrase inhibitor,human CB-CD34+ cells [8],efficient block
same,γRV-mediated ISG induction in presence of the inhibitor,[5],occurred also
same,LV-induced p21 mRNA in presence of the inhibitor,[6],still occurred
B1,p21 induction upon a second round of LV or AAV6 transduction,[6]; GSE56-expressing CB-CD34+ vs control transduced,completely prevented
same,p53 signalling upon DNA damage by Captothecin (CPT),[6]; GSE56-overexpressing HSPC,efficiently block p53 signalling
same,Apoptosis upon a second round of transduction,"human CD34+ HSPC; GSE56-expressing HSPC, 48 h after second hit",reduced apoptosis
